# Data published in PubChem BioAssay (NCI).
#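 A five-concentration, 48-hour dose response in 96-well plates underlies each endpoint, interpolated linearly between surrounding concentrations. The concentration for full growth arrest is given as TGI.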
# How the values were obtained:
# Experiment in all cases: inhibition of tumour cell growth, NCI panel, 48 h
# [1] = tested on: 786-0 renal
# [2] = tested on: A549 NSCLC
# [3] = tested on: ACHN renal
# [4] = tested on: BT-549 breast
# [5] = tested on: CAKI-1 renal
# [6] = tested on: CCRF-CEM leukemia
# [7] = tested on: COLO 205 colon
# [8] = tested on: DU-145 prostate
# [9] = tested on: EKVX NSCLC
# [10] = tested on: HCT-116 colon
# [11] = tested on: HCT-15 colon
# [12] = tested on: HL-60(TB) leukemia
# [13] = tested on: HOP-62 NSCLC
# [14] = tested on: HS 578T breast
# [15] = tested on: HT29 colon
# [16] = tested on: KM12 colon
# [17] = tested on: LOX IMVI melanoma
# [18] = tested on: M14 melanoma
# [19] = tested on: MALME-3M melanoma
# [20] = tested on: MCF7 breast
# [21] = tested on: MDA-MB-435
# [22] = tested on: MDA-N
# [23] = tested on: MOLT-4 leukemia
# [24] = tested on: NCI-H226 lung
# [25] = tested on: NCI-H23 lung
# [26] = tested on: NCI-H522 lung
# [27] = tested on: NCI/ADR-RES ovarian
# [28] = tested on: OVCAR-3 ovarian
# [29] = tested on: OVCAR-4 ovarian
# [30] = tested on: OVCAR-5 ovarian
# [31] = tested on: OVCAR-8 ovarian
# [32] = tested on: PC-3 prostate
# [33] = tested on: RPMI-8226 leukemia
# [34] = tested on: RXF 393 renal
# [35] = tested on: SF-268 CNS
# [36] = tested on: SF-295 CNS
# [37] = tested on: SF-539 CNS
# [38] = tested on: SK-MEL-2 melanoma
# [39] = tested on: SK-MEL-28 melanoma
# [40] = tested on: SK-MEL-5 melanoma
# [41] = tested on: SK-OV-3 ovarian
# [42] = tested on: SN12C renal
# [43] = tested on: SNB-19 CNS
# [44] = tested on: SNB-75 CNS
# [45] = tested on: SR leukemia
# [46] = tested on: SW-620 colon
# [47] = tested on: T-47D breast
# [48] = tested on: TK-10 renal
# [49] = tested on: U251 CNS
# [50] = tested on: UACC-257 melanoma
# [51] = tested on: UO-31 renal
# [52] = tested on: A498 renal
# [53] = tested on: HCC-2998 colon
# [54] = tested on: HOP-92 NSCLC
# [55] = tested on: IGROV1 ovarian
# [56] = tested on: K-562 leukemia
# [57] = tested on: MDA-MB-231 breast
# [58] = tested on: NCI-H460 lung
# [59] = tested on: UACC-62 melanoma
smiles,measurement,setting,value
O=C1NC(=NC2CCCCC2)C2(CCN(CCCC3(c4ccc(F)cc4)OCCO3)CC2)N1c1ccccc1,TGI,[1],30.2 µM
same,TGI,[2],46.3 µM
same,TGI,[3],28.4 µM
same,TGI,[4],18.5 µM
same,TGI,[5],50.3 µM
same,TGI,[6],> 100 µM
same,TGI,[7],38.4 µM
same,TGI,[8],33.8 µM
same,TGI,[9],36.2 µM
same,TGI,[10],24.7 µM
same,TGI,[11],36.9 µM
same,TGI,[12],28.7 µM
same,TGI,[13],31.8 µM
same,TGI,[14],35 µM
same,TGI,[15],33.1 µM
same,TGI,[16],38.9 µM
same,TGI,[17],39 µM
same,TGI,[18],41.5 µM
same,TGI,[19],30.5 µM
same,TGI,[20],48.3 µM
same,TGI,[21],42.5 µM
same,TGI,[22],28.7 µM
same,TGI,[23],36.7 µM
same,TGI,[24],44.3 µM
same,TGI,[25],34.3 µM
same,TGI,[26],34.1 µM
same,TGI,[27],66.8 µM
same,TGI,[28],25.6 µM
same,TGI,[29],50.2 µM
same,TGI,[30],30.7 µM
same,TGI,[31],64.9 µM
same,TGI,[32],38.4 µM
same,TGI,[33],64.5 µM
same,TGI,[34],31.1 µM
same,TGI,[35],42.2 µM
same,TGI,[36],35.1 µM
same,TGI,[37],30.7 µM
same,TGI,[38],30.2 µM
same,TGI,[39],35.6 µM
same,TGI,[40],28.2 µM
same,TGI,[41],42.7 µM
same,TGI,[42],37.5 µM
same,TGI,[43],35 µM
same,TGI,[44],29.8 µM
same,TGI,[45],31.4 µM
same,TGI,[46],50.2 µM
same,TGI,[47],53.2 µM
same,TGI,[48],32.7 µM
same,TGI,[49],30.2 µM
same,TGI,[50],28.7 µM
same,TGI,[51],25.9 µM
CCOC1C=CCCO1 (centres undefined),TGI,[1],> 100 µM
same,TGI,[52],> 100 µM
same,TGI,[2],> 100 µM
same,TGI,[3],> 100 µM
same,TGI,[5],> 100 µM
same,TGI,[6],> 100 µM
same,TGI,[7],> 100 µM
same,TGI,[8],> 100 µM
same,TGI,[9],> 100 µM
same,TGI,[53],9.11 µM
same,TGI,[10],> 100 µM
same,TGI,[11],> 100 µM
same,TGI,[12],> 100 µM
same,TGI,[13],> 100 µM
same,TGI,[54],> 100 µM
same,TGI,[14],> 100 µM
same,TGI,[15],> 100 µM
same,TGI,[55],> 100 µM
same,TGI,[56],> 100 µM
same,TGI,[16],> 100 µM
same,TGI,[17],> 100 µM
same,TGI,[18],> 100 µM
same,TGI,[19],> 100 µM
same,TGI,[20],> 100 µM
same,TGI,[57],> 100 µM
same,TGI,[21],> 100 µM
same,TGI,[22],> 100 µM
same,TGI,[23],> 100 µM
same,TGI,[24],> 100 µM
same,TGI,[25],> 100 µM
same,TGI,[58],> 100 µM
same,TGI,[26],> 100 µM
same,TGI,[27],> 100 µM
same,TGI,[28],> 100 µM
same,TGI,[29],> 100 µM
same,TGI,[30],> 100 µM
same,TGI,[31],> 100 µM
same,TGI,[32],> 100 µM
same,TGI,[33],> 100 µM
same,TGI,[34],> 100 µM
same,TGI,[35],> 100 µM
same,TGI,[36],> 100 µM
same,TGI,[37],> 100 µM
same,TGI,[38],> 100 µM
same,TGI,[39],> 100 µM
same,TGI,[40],> 100 µM
same,TGI,[41],> 100 µM
same,TGI,[42],> 100 µM
same,TGI,[43],> 100 µM
same,TGI,[44],> 100 µM
same,TGI,[45],> 100 µM
same,TGI,[46],> 100 µM
same,TGI,[47],> 100 µM
same,TGI,[48],> 100 µM
same,TGI,[50],> 100 µM
same,TGI,[59],> 100 µM
same,TGI,[51],38.8 µM
CC1SC(=O)SC1C (centres undefined),TGI,[1],> 100 µM
same,TGI,[2],> 100 µM
same,TGI,[3],> 100 µM
same,TGI,[6],> 100 µM
same,TGI,[7],> 100 µM
same,TGI,[9],> 100 µM
same,TGI,[53],> 100 µM
same,TGI,[10],> 100 µM
same,TGI,[11],> 100 µM
same,TGI,[12],> 100 µM
same,TGI,[13],> 100 µM
same,TGI,[14],> 100 µM
same,TGI,[55],> 100 µM
same,TGI,[56],> 100 µM
same,TGI,[16],> 100 µM
same,TGI,[18],> 100 µM
same,TGI,[20],> 100 µM
same,TGI,[57],> 100 µM
same,TGI,[21],> 100 µM
same,TGI,[22],> 100 µM
same,TGI,[23],> 100 µM
same,TGI,[58],> 100 µM
same,TGI,[26],> 100 µM
same,TGI,[27],> 100 µM
same,TGI,[29],> 100 µM
same,TGI,[30],> 100 µM
same,TGI,[31],> 100 µM
same,TGI,[32],> 100 µM
same,TGI,[33],> 100 µM
same,TGI,[35],> 100 µM
same,TGI,[36],> 100 µM
same,TGI,[37],> 100 µM
same,TGI,[39],> 100 µM
same,TGI,[40],> 100 µM
same,TGI,[41],> 100 µM
same,TGI,[42],> 100 µM
same,TGI,[43],> 100 µM
same,TGI,[44],> 100 µM
same,TGI,[45],> 100 µM
same,TGI,[46],> 100 µM
same,TGI,[47],> 100 µM
same,TGI,[48],> 100 µM
same,TGI,[49],> 100 µM
same,TGI,[50],> 100 µM
same,TGI,[51],> 100 µM
CCCCc1ccc(Nc2nc(N)c3ncn(COCCO)c3n2)cc1,TGI,[1],65.4 µM
same,TGI,[52],88.7 µM
same,TGI,[2],> 100 µM
same,TGI,[3],65.6 µM
same,TGI,[4],59.8 µM
same,TGI,[5],> 100 µM
same,TGI,[6],> 100 µM
same,TGI,[7],43.8 µM
same,TGI,[8],> 100 µM
same,TGI,[9],> 100 µM
same,TGI,[53],48.9 µM
same,TGI,[10],62.2 µM
same,TGI,[11],38.6 µM
same,TGI,[12],> 100 µM
same,TGI,[13],45.1 µM
same,TGI,[54],45.1 µM
same,TGI,[14],75 µM
same,TGI,[15],57.2 µM
same,TGI,[55],60.8 µM
same,TGI,[56],> 100 µM
same,TGI,[16],> 100 µM
same,TGI,[17],37.4 µM
same,TGI,[18],45.3 µM
same,TGI,[19],52.7 µM
same,TGI,[20],> 100 µM
same,TGI,[57],76.7 µM
same,TGI,[21],51.2 µM
same,TGI,[22],> 100 µM
same,TGI,[23],> 100 µM
same,TGI,[24],> 100 µM
same,TGI,[25],56.3 µM
same,TGI,[26],69.7 µM
same,TGI,[27],71.7 µM
same,TGI,[28],40.3 µM
same,TGI,[29],> 100 µM
same,TGI,[30],> 100 µM
same,TGI,[31],92.6 µM
same,TGI,[33],94.2 µM
same,TGI,[34],98.2 µM
same,TGI,[35],> 100 µM
same,TGI,[36],41.2 µM
same,TGI,[37],60.6 µM
same,TGI,[38],37.5 µM
same,TGI,[40],32.7 µM
same,TGI,[41],26.9 µM
same,TGI,[42],> 100 µM
same,TGI,[43],> 100 µM
same,TGI,[44],80.4 µM
same,TGI,[45],> 100 µM
same,TGI,[46],> 100 µM
same,TGI,[47],91.6 µM
same,TGI,[48],> 100 µM
same,TGI,[49],66.4 µM
same,TGI,[50],44.4 µM
same,TGI,[59],38.5 µM
same,TGI,[51],> 100 µM
